Measurements reported in patent publication US8207357B2, “Rotaxane compound and antitumor agent” (Wan Station Co., Ltd., priority 2008, dated 2012).

Tests used:
[1] = tested on: mouse colon tumor cell-derived cell line Colon-26; experiment: Antitumor activity, viable cell count (Tetra Color ONE, absorbance 450 nm) in Colon-26; type: cell-based; details: Colon-26, 1.25 μM, compared with Control, FIG. 1
Method: (§1) As tumor cells, mouse colon tumor cell-derived cell line Colon-26, human glioblastoma-derived cell line T98G, and human malignant melanoma-derived cell line G361 were used. The tumor cells of each cell line were cultured in RPMI 1640 containing 10% FBS and 0.5% penicillin-streptomycin, as the base medium, in the presence of 5% CO2, at 37° C., under humidity conditions. The tumor cells (5.0×10^4) of each cell line having been cultured to a sufficiently confluent state were seeded in a 1.5 mL tube together with the medium. Each of the rotaxane compounds was dissolved in DMSO as a vehicle (solvent) and was added to the tube in a predetermined concentration so that the total amount is 1000 μL. Then, 100 μL of this was dispensed to each well of a 96-well microplate and was incubated in a CO2 incubator for 24 hours. Subsequently, 10 μL of a viable-cell-counting reagent (Tetra Color ONE, a product of Seikagaku Corporation) was added to each well of the 96-well microplate, and a reaction was performed in the CO2 incubator for 2 hours. The ultraviolet absorbance at 450 nm (control wavelength: 620 nm) was measured […] the reaction with a microplate reader. Note that the higher absorbance means the lager number of viable cells.
The antitumor activities of TRO-A0014 and TRO-A0015 were verified using Colon-26 as tumor cells as in the method of (5-1) described above. […]

[2] = tested on: human malignant melanoma-derived cell line G361; experiment: Antitumor activity, viable cell count (Tetra Color ONE, absorbance 450 nm) in G361; type: cell-based; details: G361, at every rotaxane concentrations, FIG. 2
Method: as §1
The antitumor activity of TRO-A0010 was verified using T98G and G361 as tumor cells as in the above (5-1).

Substance | cell growth-inhibiting effect at a concentration of 1.25 μM [1] | cell growth-inhibiting effect compared with TRO-A0001 [2]
[2][(3,5-dimethylphenylcarboxyethyl)(3,5-dimethylphenylcarboxypropyl) ammonium-rotaxa-[2,5,8,11,13,16,19,22-octaoxa-1,12(1,2)-dibenzenacyclodocosaphane]] trifluoromethanesulfonate [TRO-A0014] | obviously observed | –
[2][bis(3,5-dimethylphenylcarboxypentyl)ammonium-rotaxa-[2,5,8,11,13,16,19,22-octaoxa-1,12(1,2)-dibenzenacyclodocosaphane]]trifluoromethanesulfonate [TRO-A0010] | – | higher than that of TRO-A0001
